The values below come from BindingDB's records for doi:10.7270/Q2S180X7 (Vanderbilt Screening Center For Gpcrs, Ion Channels and …, 2009).

This test concerns the target T1, Muscarinic acetylcholine receptor M5 (Homo sapiens, UniProt P08912).
T1 sequence (P08912 whole entry): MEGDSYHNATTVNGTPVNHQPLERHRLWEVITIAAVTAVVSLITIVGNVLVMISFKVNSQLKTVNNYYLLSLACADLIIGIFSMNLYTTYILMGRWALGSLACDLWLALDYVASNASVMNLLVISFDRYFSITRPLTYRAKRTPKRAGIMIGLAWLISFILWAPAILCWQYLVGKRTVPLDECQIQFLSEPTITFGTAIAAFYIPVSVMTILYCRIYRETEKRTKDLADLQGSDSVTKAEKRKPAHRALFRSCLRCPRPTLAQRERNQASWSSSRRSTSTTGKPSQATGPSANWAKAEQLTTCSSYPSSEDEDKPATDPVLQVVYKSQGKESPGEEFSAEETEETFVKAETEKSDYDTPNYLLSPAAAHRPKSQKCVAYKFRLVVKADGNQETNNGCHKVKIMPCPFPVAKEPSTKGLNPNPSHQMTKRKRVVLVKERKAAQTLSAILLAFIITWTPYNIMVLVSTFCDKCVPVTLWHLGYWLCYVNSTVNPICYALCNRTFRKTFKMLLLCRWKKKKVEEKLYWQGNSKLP
As to the kind of experiment: binding competition at muscarinic M5 – biochemical, [3H]N-methylscopolamine (AID 2192). The following applies: inactive by the depositor's call.

As a reminder, the EC50 is the concentration at which the effect is half-maximal. Read a high EC50 as a need for much substance. The compound `COc1ccc(CN2C(=O)C(=O)c3cc(OC(F)(F)F)ccc32)cc1` [VU0238429] yielded an EC50 of 1710 nM.
